We go through 32 compounds from patent US20040142821A1, “Pesticide composition comprising malononitrile compounds” (priority 2001, published 2004).

The mortality is the share of the test organisms that died. Read a low mortality as a weak lethal effect.

SMILES strings stand for the structures.

Assay [1] has as its system Diabrotica undecimpunctata. In words: Pesticidal test against Diabrotica undecimpunctata, treated filter paper (Test Example 4). It is filed as in vivo, Diabrotica undecimpunctata (southern-corn rootworm). The settings on record: 50 ppm test liquid (Formulation Example 1), 1 ml on filter paper; 30 to 50 eggs and one germinated corn seed; 25° C. As for the experimental part: One germinated seed of corn and 30 to 50 eggs of Diabrotica undecimpunctata (southern-corn rootworm) was placed on the filter paper in the polyethylene cup, which was then kept covered and left in a room at 25° C. On the 6th day after, the number of surviving larvae of Diabrotica undecimpunctata was examined.

In a further assay the test system is Musca domestics. In words: Pesticidal test against Musca domestics, treated filter paper with sucrose bait (Test Example 5). It is filed as in vivo. The settings on record: 500 ppm test liquid (Formulation Example 5), 0.7 ml on filter paper, ten female adults, after 24 hours. As for the experimental part:
Ten female adults of Musca domestics (house fly) were set free in the polyethylene cup, which was then kept covered. After 24 hours, their survival was examined to determine the mortality.

Another assay relates to Cullex pipiens pallens. In words: whole plant or invertebrate. The settings on record: 24 h.
The subject of another assay is German cockroach. In words: Pesticidal test against German cockroach, treated filter paper with sucrose bait (Test Example 6). In kind it is in vivo. The settings on record: Blattella germanica, 144 h; 500 ppm test liquid (Formulation Example 5), 0.7 ml on filter paper; two male adults; after 6 days. The text has this:
Two male adults of German cockroach (Blattalla germanica) were set free in the polyethylene cup, which was then kept covered. After 6 days, their survival was examined to determine the mortality.

Description for Cullex pipiens pallens: In 100 ml of ion-exchanged water, the test liquid had been prepared as described above, was added dropwise in an amount of 0.7 ml (the concentration of active ingredient was 3.5 ppm). Twenty final-instar larvae of Cullex pipiens pallens (common mosquito) were set free in the solution. After 1 days, their survival was examined to determine the mortality.

For `C=CCCC(C#N)(C#N)C(c1ccc(OC(F)(F)F)cc1)C(C)C` (stereo not shown) [Compound 12], the “number of surviving pests on the 6th day after” value in assay [1] was 0.
As for `C=CCC(C#N)(C#N)Cc1cccc(Cl)c1` [Compound 17, 2-allyl-2-(3-chlorobenzyl)malononitrile], the mortality at 500 ppm in the assay on Musca domestics and in the assay with German cockroach was 100% in each case. This compound displayed a mortality at 3.5 µg/mL in the assay on Cullex pipiens pallens of 100%.
As to `CC(C)CC(C#N)(C#N)Cc1ccc(Cl)cc1` [Compound 19, 2-(4-chlorobenzyl)-2-isobutylmalononitrile], the “number of surviving pests on the 6th day after” value in assay [1] was determined as 0. Besides, the mortality at 3.5 µg/mL in the assay with Cullex pipiens pallens was determined as 100%.
The corresponding values for `C=CCCCC(C#N)(C#N)Cc1ccc(Cl)cc1` [Compound 21, 2-(4-chlorobenzyl)-2-(4-pentenyl)malononitrile] are 0 and 100%.
On the same counts, the results for `C=CCCC(C#N)(C#N)C(c1ccc(Cl)cc1)C(C)C` (stereo not shown) [Compound 26, 2-(3-butenyl)-2-(1-(4-chlorophenyl)-2-methylpropyl)malononitrile] are 0 and 100%.
As for `C=CCC(C#N)(C#N)C(C)c1ccc(OC(F)(F)F)cc1` (stereo not shown) [Compound 30, 2-allyl-2-(1-(4-(trifluoromethoxy)phenyl)ethyl)malononitrile], the mortality at 500 ppm with Musca domestics and with German cockroach was 100% in each case. In the assay with Cullex pipiens pallens, the mortality at 3.5 µg/mL was determined as 100%.
For `C=CCC(C#N)(C#N)C(CCl)c1ccc(OC(F)(F)F)cc1` (stereo not shown) [Compound 31, 2-allyl-2-(1-(4-(trifluoromethoxy)phenyl)-2-chloroethyl)malononitrile], the mortality at 500 ppm in the assay on Musca domestics and with German cockroach was 100% each time. The compound further gave a mortality at 3.5 µg/mL in the assay on Cullex pipiens pallens of 100%.
On to `C=CCCC(C#N)(C#N)C(C=C)c1ccc(OC(F)(F)F)cc1` (stereo not shown) [Compound 32, 2-(3-butenyl)-2-(1-(4-(trifluoromethoxy)phenyl)-2-propenyl)malononitrile], for which the mortality at 500 ppm with Musca domestics and in the assay on German cockroach was 100% throughout. In addition, in the assay with Cullex pipiens pallens, the mortality at 3.5 µg/mL was 100%.
As for `C=CCC(C#N)(C#N)C(C=C)c1ccc(OC(F)(F)F)cc1` (stereo not shown) [Compound 33, 2-allyl-2-(1-(4-(trifluoromethoxy)phenyl)-2-propenyl)malononitrile], the mortality at 500 ppm in the assay on Musca domestics and with German cockroach was 100% in each case. The compound further had a mortality at 3.5 µg/mL with Cullex pipiens pallens of 100%.
For the compound `C=CCCC(C#N)(C#N)Cc1ccc(OC(F)F)cc1` [Compound 36, 2-(3-butenyl)-2-(4-(difluoromethoxy)benzyl)malononitrile], the mortality at 500 ppm in the assay with Musca domestics and in the assay on German cockroach was 100% in each case. The same compound displayed a mortality at 3.5 µg/mL in the assay on Cullex pipiens pallens of 100%.
In the case of `C=CCC(C#N)(C#N)C(OC)c1ccc(OC(F)(F)F)cc1` (stereo not drawn) [Compound 39, 2-allyl-2-(4-(trifluoromethoxy)-α-methoxybenzyl)malononitrile], the mortality at 500 ppm in the assay with Musca domestics and in the assay with German cockroach was 100% in each case. Moreover, in the assay with Cullex pipiens pallens, the mortality at 3.5 µg/mL was found to be 100%.
For the compound `C=CCC(C#N)(C#N)Cc1ccc(SC(F)(F)F)cc1` [Compound 41, 2-allyl-2-(4-(trifluoromethylthio)benzyl)malononitrile], the mortality at 500 ppm with Musca domestics and with German cockroach was 100% in each case. The same compound returned a mortality at 3.5 µg/mL in the assay on Cullex pipiens pallens of 100%.
Consider `C=CCCC(C#N)(C#N)Cc1ccc(SC(F)(F)F)cc1` [Compound 42, 2-(3-butenyl)-2-(4-(trifluoromethylthio)benzyl)malononitrile], for which the mortality at 500 ppm with Musca domestics and in the assay with German cockroach was 100% in each case. The mortality at 3.5 µg/mL in the assay with Cullex pipiens pallens was 100%.
Turning to `C=CCC(C#N)(C#N)C(OC)c1ccc(SC(F)(F)F)cc1` (stereo not drawn) [Compound 43, 2-allyl-2-(4-(trifluoromethylthio)-α-methoxybenzyl)malononitrile], the mortality at 500 ppm with Musca domestics and in the assay with German cockroach was 100% each time. Besides, the mortality at 3.5 µg/mL in the assay with Cullex pipiens pallens amounted to 100%.
Take `CC=CCC(C#N)(C#N)Cc1ccc(SC(F)(F)F)cc1` [Compound 46, 2-(2-butenyl)-2-(4-(trifluoromethylthio)benzyl)malononitrile]: the mortality at 500 ppm in the assay on Musca domestics and with German cockroach was 100% each time. In the assay with Cullex pipiens pallens, the mortality at 3.5 µg/mL was determined as 100%.
With `C=CC(C)C(C#N)(C#N)Cc1ccc(SC(F)(F)F)cc1` (stereo not shown) [Compound 47, 2-(1-methyl-2-propenyl)-2-(4-(trifluoromethylthio)benzyl)malononitrile], the mortality at 500 ppm in the assay with Musca domestics and in the assay on German cockroach was 100% throughout. In the assay with Cullex pipiens pallens, this compound gave a mortality at 3.5 µg/mL of 100%.
Take `C=CCCC(C#N)(C#N)Cc1ccc(C(F)(F)F)cc1` [Compound 52, 2-(3-butenyl)-2-(4-(trifluoromethyl)benzyl)malononitrile]: the mortality at 500 ppm in the assay with Musca domestics and in the assay with German cockroach was 100% in each case. The mortality at 3.5 µg/mL with Cullex pipiens pallens turned out to be 100%.
On to `C=CCC(C#N)(C#N)C(C#N)c1ccc(OC(F)(F)F)cc1` (stereo not drawn) [Compound 55, 2-allyl-2-(4-(trifluoromethoxy)-α-cyanobenzyl)malononitrile], for which the mortality at 500 ppm with Musca domestics and with German cockroach was 100% each time. The mortality at 3.5 µg/mL with Cullex pipiens pallens was 100%.
`C=CCC(C#N)(C#N)C(C#N)c1ccc(SC(F)(F)F)cc1` (stereo not drawn) [Compound 56, 2-allyl-2-(4-(trifluoromethylthio)-α-cyanobenzyl)malononitrile]: the mortality at 500 ppm with Musca domestics and in the assay with German cockroach was 100% in each case. This compound gave a mortality at 3.5 µg/mL with Cullex pipiens pallens of 100%.
Regarding `C=CCC(C#N)(C#N)Cc1ccc(C(F)(F)F)cc1C(F)(F)F` [Compound 57, 2-allyl-2-(2,4-bis(trifluoromethyl)benzyl)malononitrile], the mortality at 500 ppm in the assay with Musca domestics and in the assay with German cockroach was 100% in each case. The same compound displayed a mortality at 3.5 µg/mL in the assay with Cullex pipiens pallens of 100%.
For `C=CCC(C#N)(C#N)Cc1ccc(C(F)(F)F)cc1Cl` [Compound 58, 2-allyl-2-(2-chloro-4-(trifluoromethyl)benzyl)malononitrile], the mortality at 500 ppm in the assay on Musca domestics and in the assay on German cockroach was 100% in each case. The same compound returned a mortality at 3.5 µg/mL with Cullex pipiens pallens of 100%.
On to `CC#CCC(C#N)(C#N)Cc1ccc(OC(F)(F)F)cc1` [Compound 59, 2-(2-butynyl)-2-(4-(trifluoromethoxy)benzyl)malononitrile], for which the mortality at 500 ppm in the assay on Musca domestics and in the assay on German cockroach was 100% throughout. Moreover, the mortality at 3.5 µg/mL in the assay with Cullex pipiens pallens stood at 100%.
Turning to `C=CCCC(C#N)(C#N)Cc1ccc(C(F)(F)F)cc1Cl` [Compound 60, 2-(3-butenyl)-2-(2-chloro-4-(trifluoromethyl)benzyl)malononitrile], the mortality at 500 ppm with Musca domestics and in the assay with German cockroach was 100% throughout. Further, the mortality at 3.5 µg/mL with Cullex pipiens pallens worked out at 100%.
`C=CCC(C#N)(C#N)Cc1c(Cl)cc(C(F)(F)F)cc1Cl` [Compound 64, 2-allyl-2-(2,6-dichloro-4-(trifluoromethyl)benzyl)malononitrile]: the mortality at 500 ppm in the assay with Musca domestics and in the assay on German cockroach was 100% in each case. Also, the mortality at 3.5 µg/mL in the assay with Cullex pipiens pallens was 100%.
As to `CC(C#N)(C#N)Cc1ccc(Cl)cc1` [Compound 68, 2-(4-chlorobenzyl)-2-methylmalononitrile], the mortality at 500 ppm in the assay on Musca domestics and in the assay with German cockroach was 100% each time. For the same compound, in the assay with Cullex pipiens pallens, the mortality at 3.5 µg/mL worked out at 100%.
`C=CCC(C#N)(C#N)Cc1ccc(C(F)(F)F)c(F)c1` [Compound 69, 2-allyl-2-(3-fluoro-4-(trifluoromethyl)benzyl)malononitrile]: the mortality at 500 ppm in the assay with Musca domestics and with German cockroach was 100% in each case. This compound also came in with a mortality at 3.5 µg/mL in the assay on Cullex pipiens pallens of 100%.
Turning to `C=CCCCC(C#N)(C#N)Cc1ccc(C(F)(F)F)cc1` [Compound 79, 2-(4-pentenyl)-2-(4-(trifluoromethyl)benzyl)malononitrile], the mortality at 500 ppm in the assay on Musca domestics and in the assay on German cockroach was 100% throughout. The mortality at 3.5 µg/mL with Cullex pipiens pallens amounted to 100%.
Turning to `C=CCC(C#N)(C#N)C(OC)c1ccc(Cl)cc1` (stereo not drawn) [Compound 84, 2-allyl-2-(4-chloro-α-methoxybenzyl)malononitrile], the mortality at 500 ppm in the assay on Musca domestics and with German cockroach was 100% each time. For the same compound, the mortality at 3.5 µg/mL in the assay with Cullex pipiens pallens turned out to be 100%.
In the case of `C=CCC(C#N)(C#N)Cc1cccc(OC(F)(F)F)c1` [Compound 89, 2-allyl-2-(3-(trifluoromethoxy)benzyl)malononitrile], the mortality at 500 ppm with Musca domestics and with German cockroach was 100% in each case. The compound also gave a mortality at 3.5 µg/mL with Cullex pipiens pallens of 100%.
For the compound `C=CCC(C#N)(C#N)Cc1ccc(C(C)C)cc1` [Compound 102, 2-allyl-2-(4-isopropylbenzyl)malononitrile], the mortality at 500 ppm in the assay on Musca domestics and in the assay on German cockroach was 100% in each case. In addition, the mortality at 3.5 µg/mL in the assay with Cullex pipiens pallens was determined as 100%.
In the case of `CCCCC(C#N)(C#N)Cc1ccc(C(F)(F)F)cc1` [Compound 109, 2-butyl-2-(4-(trifluoromethyl)benzyl)malononitrile], the mortality at 500 ppm in the assay with Musca domestics and in the assay with German cockroach was 100% in each case. In the assay on Cullex pipiens pallens, this compound showed a mortality at 3.5 µg/mL of 100%.
`CC(C)CC(C#N)(C#N)Cc1ccc(C(F)(F)F)cc1` [Compound 110, 2-(2-methylpropyl)-2-(4-(trifluoromethyl)benzyl)malononitrile]: the mortality at 500 ppm in the assay with Musca domestics and in the assay with German cockroach was 100% each time. The compound also showed a mortality at 3.5 µg/mL with Cullex pipiens pallens of 100%.
